Laboratory results: article PMC7319900 (Nature, 2020)

Legend:
BaiCD from C. hiranonis = target: T1, BaiCD from C. hiranonis (Peptacetobacter hiranonis, UniProt Q9RB48); assay: LC-MS of acid-precipitated purified enzyme; format: binding; settings: as purified after expression and lysis with added flavin
T1 sequence (Q9RB48 1-639): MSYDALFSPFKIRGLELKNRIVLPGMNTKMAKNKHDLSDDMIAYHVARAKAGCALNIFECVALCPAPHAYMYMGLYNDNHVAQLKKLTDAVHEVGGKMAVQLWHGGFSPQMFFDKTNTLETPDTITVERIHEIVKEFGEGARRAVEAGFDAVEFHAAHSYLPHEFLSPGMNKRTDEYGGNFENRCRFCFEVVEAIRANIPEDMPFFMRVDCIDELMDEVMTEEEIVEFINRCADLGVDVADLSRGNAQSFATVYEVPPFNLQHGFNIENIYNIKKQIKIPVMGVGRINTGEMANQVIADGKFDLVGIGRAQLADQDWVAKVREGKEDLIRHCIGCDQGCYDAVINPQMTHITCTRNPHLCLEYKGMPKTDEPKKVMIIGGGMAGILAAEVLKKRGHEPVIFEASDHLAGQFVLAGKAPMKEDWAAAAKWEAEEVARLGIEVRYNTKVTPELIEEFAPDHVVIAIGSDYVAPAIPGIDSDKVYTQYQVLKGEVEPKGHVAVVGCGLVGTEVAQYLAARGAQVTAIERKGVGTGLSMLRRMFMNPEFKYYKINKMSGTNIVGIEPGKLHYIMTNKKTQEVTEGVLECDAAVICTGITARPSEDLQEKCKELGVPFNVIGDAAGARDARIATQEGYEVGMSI

BaiH from C. scindens = target: T2, BaiH from C. scindens ([Clostridium] scindens, UniProt P32370); assay: LC-MS of acid-precipitated purified enzyme; format: binding; settings: as purified after expression and lysis with added flavin
T2 sequence (P32370 1-661): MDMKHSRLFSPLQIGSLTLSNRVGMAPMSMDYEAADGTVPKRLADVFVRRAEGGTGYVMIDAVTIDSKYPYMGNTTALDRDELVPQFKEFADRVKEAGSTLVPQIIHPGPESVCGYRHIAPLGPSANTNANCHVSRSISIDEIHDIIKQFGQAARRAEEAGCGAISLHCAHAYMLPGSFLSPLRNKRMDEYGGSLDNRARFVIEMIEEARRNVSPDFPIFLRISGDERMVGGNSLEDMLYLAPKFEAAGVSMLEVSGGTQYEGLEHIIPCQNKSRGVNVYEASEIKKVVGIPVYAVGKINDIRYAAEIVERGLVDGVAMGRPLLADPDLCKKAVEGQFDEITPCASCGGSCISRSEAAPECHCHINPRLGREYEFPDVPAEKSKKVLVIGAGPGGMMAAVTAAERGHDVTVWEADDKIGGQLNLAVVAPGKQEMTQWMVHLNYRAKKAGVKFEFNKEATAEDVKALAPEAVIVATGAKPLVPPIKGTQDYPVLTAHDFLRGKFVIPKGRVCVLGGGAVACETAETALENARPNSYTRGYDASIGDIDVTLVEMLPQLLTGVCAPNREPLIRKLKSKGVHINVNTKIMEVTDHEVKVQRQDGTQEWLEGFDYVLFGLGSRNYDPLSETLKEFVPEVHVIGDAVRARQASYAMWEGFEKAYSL

BaiA2 from C. scindens = target: T3, BaiA2 from C. scindens ([Clostridium] scindens, UniProt P19337); assay: LC-MS extracted ion chromatograms; format: biochemical; settings: reduction to DCA; experiment performed once
T3 sequence (P19337 1-249): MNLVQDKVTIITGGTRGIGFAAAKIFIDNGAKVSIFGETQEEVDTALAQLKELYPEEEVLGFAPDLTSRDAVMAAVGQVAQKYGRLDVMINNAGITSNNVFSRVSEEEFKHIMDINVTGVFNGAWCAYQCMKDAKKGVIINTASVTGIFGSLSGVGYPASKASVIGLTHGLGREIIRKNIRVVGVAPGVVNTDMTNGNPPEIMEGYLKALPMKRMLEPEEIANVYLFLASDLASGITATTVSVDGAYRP

SMILES | LC-MS of acid-precipitated purified enzyme; UV-vis (BaiCD from C. hiranonis) | LC-MS of acid-precipitated purified enzyme; UV-vis (BaiH from C. scindens) | LC-MS extracted ion chromatograms (BaiA2 from C. scindens)
Cc1cc2nc3c(=O)[nH]c(=O)nc-3n(C[C@H](O)[C@H](O)[C@H](O)COP(=O)(O)OP(=O)(O)OC[C@H]3O[C@@H](n4cnc5c(N)ncnc54)[C@H](O)[C@@H]3O)c2cc1C [FAD] | The presence of FAD and FMN were confirmed by precipitating purified enzyme with sulfuric acid | The presence of FAD and FMN were confirmed by precipitating purified enzyme with sulfuric acid | 
Cc1cc2nc3c(=O)[nH]c(=O)nc-3n(C[C@H](O)[C@H](O)[C@H](O)COP(=O)(O)O)c2cc1C [FMN] | The presence of FAD and FMN were confirmed by precipitating purified enzyme with sulfuric acid | The presence of FAD and FMN were confirmed by precipitating purified enzyme with sulfuric acid | 
C[C@H](CCC(=O)O)[C@H]1CC[C@H]2[C@@H]3CC[C@@H]4CC(=O)CC[C@]4(C)[C@H]3C[C@H](O)[C@]12C [compound 8, 3-oxo-deoxycholic acid] |  |  | conversion of 3-oxo-DCA to DCA by recombinant BaiA2
